# Results taken from article PMC7311426, “An amphipathic peptide with antibiotic activity against multidrug-resistant Gram-negative bacteria” (Nature Communications, 2020).
# Like-named read-outs stand apart in the source and are kept apart here.
# What was measured:
# Experiment in all cases: microbe, parasite or virus in culture
# K. pneumoniae = conditions: Klebsiella pneumoniae
# Method in brief: (§1)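 Broth microdilution in MHB, 2-fold 12-point series from 128 or 64 down to 0.06 or 0.03 μg mL^−1, 5 × 10^5 CFU mL^−1. Extra runs in CAMHB per CLSI and in MHB with 1% agarose; n ≥ 6.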
# P. aeruginosa = conditions: Pseudomonas aeruginosa
# Method in brief: as §1
# [1] = system: A. baumannii clinical isolates
# Protocol: The in vitro activity of AA139 and comparator antimicrobials was determined in two panels of clinical isolates of E. coli, K. pneumoniae, P. aeruginosa, and A. baumannii (Supplementary Table 3), and MIC90 presented. The US panel consisted of 331 clinical isolates from 2010 to 2012. It was tested by BMD in accordance with the CLSI guidelines (M07-A9, 2012)[39]. […] AA139 was diluted in 0.01% acetic acid/0.1% bovine serum albumin. Sterile polypropylene culture cluster round-bottom 96-well plates (Costar # 3879) were used for testing. The worldwide panel consisted of 445 clinical isolates from 2011 to 2013, geographically divided into Asia, Europe, North America, and Rest of World (Middle East, Latin America, Africa, and South Pacific) with each region representing ~25% of the isolates. It was tested by broth microdilution in accordance with the CLSI guidelines (M07-A9, 2012)[39]. […] The test media was CAMHB (Becton Dickinson). AA139 and polymyxin B were tested in media supplemented with 0.002% Tween 80 (Calbiochem). MIC90 values were calculated for all or subsets of the isolates. MIC correlation between AA139 and colistin was analyzed with data from the US panel.
# [2] = A. baumannii, worldwide isolates 2011-2013, n = 108
compound,measurement,setting,value
"C[C@H]1COc2c(N3CCN(C)CC3)c(F)cc3c(=O)c(C(=O)O)cn1c23 [LEV, levofloxacin, reference compound]",MIC,"K. pneumoniae; read-out: MIC, broth microdilution, K. pneumoniae 3010 spontaneous mutant, AA139 selection 4X, plate 1, colony 1, drug-free passage 1",0.06 µg/mL
same,MIC,"K. pneumoniae; read-out: MIC, broth microdilution, K. pneumoniae 3010 spontaneous mutant, AA139 selection 4X, plate 1, colony 1, drug-free passage 5",0.06 µg/mL
same,MIC,"K. pneumoniae; read-out: MIC, broth microdilution, K. pneumoniae 3010 spontaneous mutant, AA139 selection 8X, plate 1, colony 1, drug-free passage 1",0.06 µg/mL
same,MIC,"K. pneumoniae; read-out: MIC, broth microdilution, K. pneumoniae 3010 spontaneous mutant, AA139 selection 8X, plate 1, colony 1, drug-free passage 5",0.06 µg/mL
same,MIC,"P. aeruginosa; ATCC27853, read-out: MIC, broth microdilution, P. aeruginosa ATCC 27853 spontaneous mutant, AA139 selection 4X, plate 1, colony 2, drug-free passage 1",2 µg/mL
same,MIC,"P. aeruginosa; ATCC27853, read-out: MIC, broth microdilution, P. aeruginosa ATCC 27853 spontaneous mutant, AA139 selection 4X, plate 1, colony 3, drug-free passage 5",2 µg/mL
same,MIC,"P. aeruginosa; ATCC27853, read-out: MIC, broth microdilution, P. aeruginosa ATCC 27853 spontaneous mutant, AA139 selection 4X, plate 1, colony 4, drug-free passage 1",2 µg/mL
same,MIC,"P. aeruginosa; ATCC27853, read-out: MIC, broth microdilution, P. aeruginosa ATCC 27853 spontaneous mutant, AA139 selection 4X, plate 1, colony 5, drug-free passage 1",2 µg/mL
same,MIC,"P. aeruginosa; ATCC27853, read-out: MIC, broth microdilution, P. aeruginosa ATCC 27853 spontaneous mutant, AA139 selection 4X, plate 1, colony 5, drug-free passage 5",2 µg/mL
same,MIC,"P. aeruginosa; ATCC27853, read-out: MIC, broth microdilution, P. aeruginosa ATCC 27853 spontaneous mutant, AA139 selection 4X, plate 1, colony 6, drug-free passage 1",2 µg/mL
same,MIC,"P. aeruginosa; ATCC27853, read-out: MIC, broth microdilution, P. aeruginosa ATCC 27853 spontaneous mutant, AA139 selection 4X, plate 2, colony 1, drug-free passage 1",2 µg/mL
same,MIC,"P. aeruginosa; ATCC27853, read-out: MIC, broth microdilution, P. aeruginosa ATCC 27853 spontaneous mutant, AA139 selection 4X, plate 2, colony 2, drug-free passage 1",2 µg/mL
same,MIC,"P. aeruginosa; ATCC27853, read-out: MIC, broth microdilution, P. aeruginosa ATCC 27853 spontaneous mutant, AA139 selection 8X, plate 1, colony 1, drug-free passage 5",2 µg/mL
same,MIC,"P. aeruginosa; ATCC27853, read-out: MIC, broth microdilution, P. aeruginosa ATCC 27853 spontaneous mutant, AA139 selection 8X, plate 1, colony 2, drug-free passage 1",2 µg/mL
same,MIC,"P. aeruginosa; read-out: MIC, broth microdilution, P. aeruginosa UNT 138-1 spontaneous mutant, AA139 selection 4X, plate 1, colony 1, drug-free passage 1",2 µg/mL
same,MIC50,[1]; [2],16 µg/mL
same,MIC90,[1]; [2],> 32 µg/mL
same,Number of isolates with MIC 0.03 (MIC frequency distribution),"[1]; A. baumannii, worldwide isolates 2011-2013, n = 108, count of isolates at MIC 0.03",1
same,Number of isolates with MIC 0.06 (MIC frequency distribution),"[1]; A. baumannii, worldwide isolates 2011-2013, n = 108, count of isolates at MIC 0.06",4
same,Number of isolates with MIC 0.125 (MIC frequency distribution),"[1]; A. baumannii, worldwide isolates 2011-2013, n = 108, count of isolates at MIC 0.125",8
same,Number of isolates with MIC 0.25 (MIC frequency distribution),"[1]; A. baumannii, worldwide isolates 2011-2013, n = 108, count of isolates at MIC 0.25",2
same,Number of isolates with MIC 0.5 (MIC frequency distribution),"[1]; A. baumannii, worldwide isolates 2011-2013, n = 108, count of isolates at MIC 0.5",3
same,Number of isolates with MIC 1 (MIC frequency distribution),"[1]; A. baumannii, worldwide isolates 2011-2013, n = 108, count of isolates at MIC 1",0
same,Number of isolates with MIC 2 (MIC frequency distribution),"[1]; A. baumannii, worldwide isolates 2011-2013, n = 108, count of isolates at MIC 2",0
same,Number of isolates with MIC 4 (MIC frequency distribution),"[1]; A. baumannii, worldwide isolates 2011-2013, n = 108, count of isolates at MIC 4",6
same,Number of isolates with MIC 8 (MIC frequency distribution),"[1]; A. baumannii, worldwide isolates 2011-2013, n = 108, count of isolates at MIC 8",22
same,Number of isolates with MIC 16 (MIC frequency distribution),"[1]; A. baumannii, worldwide isolates 2011-2013, n = 108, count of isolates at MIC 16",20
same,Number of isolates with MIC 32 (MIC frequency distribution),"[1]; A. baumannii, worldwide isolates 2011-2013, n = 108, count of isolates at MIC 32",19
same,Number of isolates with MIC 64 (MIC frequency distribution),"[1]; A. baumannii, worldwide isolates 2011-2013, n = 108, count of isolates at MIC 64",0
same,Number of isolates with MIC 128 (MIC frequency distribution),"[1]; A. baumannii, worldwide isolates 2011-2013, n = 108, count of isolates at MIC 128",0
same,Number of isolates with MIC >16 (MIC frequency distribution),"[1]; A. baumannii, worldwide isolates 2011-2013, n = 108, count of isolates at MIC >16",0
same,Number of isolates with MIC >32 (MIC frequency distribution),"[1]; A. baumannii, worldwide isolates 2011-2013, n = 108, count of isolates at MIC >32",23
same,Number of isolates with MIC >128 (MIC frequency distribution),"[1]; A. baumannii, worldwide isolates 2011-2013, n = 108, count of isolates at MIC >128",0
same,Number of isolates with MIC ≤0.015 (MIC frequency distribution),"[1]; A. baumannii, worldwide isolates 2011-2013, n = 108, count of isolates at MIC ≤0.015",0
same,MIC90,[1]; Acinetobacter baumannii,> 32 µg/mL
